Laboratory results published in US10669258B2, “3-sulfonyl-5-aminopyridine-2,4-diol APJ agonists” (BRISTOL-MYERS SQUIBB COMPANY, priority 2016, dated 2020).
pEC50: −log10 of the molar value.

Biological target: T1, human APJ receptor (Homo sapiens, UniProt P35414)
T1 construct: expressed in transfected cells; host or cells: HEK293
T1 sequence (P35414 1-380): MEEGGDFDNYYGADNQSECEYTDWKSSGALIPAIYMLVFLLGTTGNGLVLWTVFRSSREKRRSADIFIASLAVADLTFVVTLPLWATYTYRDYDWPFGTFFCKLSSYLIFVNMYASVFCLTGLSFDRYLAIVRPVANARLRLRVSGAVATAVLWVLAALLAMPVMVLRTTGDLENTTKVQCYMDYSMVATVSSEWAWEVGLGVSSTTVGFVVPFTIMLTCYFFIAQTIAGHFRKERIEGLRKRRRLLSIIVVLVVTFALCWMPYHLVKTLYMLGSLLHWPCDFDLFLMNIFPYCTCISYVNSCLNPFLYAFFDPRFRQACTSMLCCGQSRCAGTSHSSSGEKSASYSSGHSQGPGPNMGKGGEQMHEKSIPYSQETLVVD
Assay: Intracellular cAMP accumulation assay (APJ hcAMP, HTRF)
Assay type: cell-based
Details: HEK293 cells stably expressing human APJ receptor; inhibition of forskolin-mediated cAMP production; Table 1; read-out: hAPJ cAMP EC50 Potency range
How it was run: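 Inhibition of forskolin (2 μM)-driven cAMP, with […], measured by HTRF after 30 min room-temperature compound exposure of stably transfected HEK293 cells. cAMP read from a standard curve; variable-slope fit gives EC50, and maximal inhibition is normalised to (Pyr1)apelin-13 as 100%.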

Row | Structure (SMILES) | pEC50
1 | CCCCc1nc(O)c(S(=O)(=O)c2ccc(-c3ccccc3COC)cc2)c(O)c1N(CC)c1ccccc1 [Example 087, 6-butyl-5-(ethyl(phenyl)amino)-3-((2′-(methoxymethyl)-[1,1′-biphenyl]-4-yl)sulfonyl)pyridine-2,4-diol] | 8.00 to 11.00
2 | CCCCc1nc(O)c(S(=O)(=O)c2ccc(-c3ccccc3)cc2)c(O)c1N(CC)c1ccccc1 [Example 088, 3-([1,1′-biphenyl]-4-ylsulfonyl)-6-butyl-5-(ethyl(phenyl)amino)pyridine-2,4-diol] | 7.00 to 8.00
3 | CCCCc1nc(O)c(S(=O)(=O)c2ccc(-c3ccncc3C)cc2)c(O)c1N(C)c1cccc(C)c1 [Example 090, 6-butyl-5-(methyl(m-tolyl)amino)-3-((4-(3-methylpyridin-4-yl)phenyl)sulfonyl)pyridine-2,4-diol] | 8.00 to 11.00
4 | CCCCc1nc(O)c(S(=O)(=O)c2ccc(-c3ccnc(F)c3C)cc2)c(O)c1N(C)c1cccc(C)c1 [Example 091, 6-butyl-3-((4-(2-fluoro-3-methylpyridin-4-yl)phenyl)sulfonyl)-5-(methyl(m-tolyl)amino)pyridine-2,4-diol] | 8.00 to 11.00
5 | CCCCc1nc(O)c(S(=O)(=O)c2ccc(-c3ccnc(F)c3C)cc2)c(O)c1N(C)c1ccc(C)cc1 [Example 092, 6-butyl-3-((4-(2-fluoro-3-methylpyridin-4-yl)phenyl)sulfonyl)-5-(methyl(p-tolyl)amino)pyridine-2,4-diol] | 8.00 to 11.00
6 | CCCCc1nc(O)c(S(=O)(=O)c2ccc(Br)cc2)c(O)c1N(C)c1cccc(C)c1 [Example 093, 3-((4-bromophenyl)sulfonyl)-6-butyl-5-(methyl(m-tolyl)amino)pyridine-2,4-diol] | 7.00 to 8.00
7 | CCCCc1nc(O)c(S(=O)(=O)c2ccc(-c3ccncc3C)cc2)c(O)c1N(C)c1ccc(C)cc1 [Example 094, 6-butyl-5-(methyl(p-tolyl)amino)-3-((4-(3-methylpyridin-4-yl)phenyl)sulfonyl)pyridine-2,4-diol] | 8.00 to 11.00
8 | CCCCc1nc(O)c(S(=O)(=O)c2ccc(-c3ccc(F)nc3C)cc2)c(O)c1N(C)c1cccc(C)c1 [Example 095, 6-butyl-3-((4-(6-fluoro-2-methylpyridin-3-yl)phenyl)sulfonyl)-5-(methyl(m-tolyl)amino)pyridine-2,4-diol] | 7.00 to 8.00
9 | CCCCc1nc(O)c(S(=O)(=O)c2ccc(-c3cccnc3C)cc2)c(O)c1N(C)c1cccc(C)c1 [Example 096, 6-butyl-5-(methyl(m-tolyl)amino)-3-((4-(2-methylpyridin-3-yl)phenyl)sulfonyl)pyridine-2,4-diol] | 8.00 to 11.00
10 | CCCCc1nc(O)c(S(=O)(=O)c2ccc(-c3cccnc3C)cc2)c(O)c1N(C)c1ccc(C)cc1 [Example 097, 6-butyl-5-(methyl(p-tolyl)amino)-3-((4-(2-methylpyridin-3-yl)phenyl)sulfonyl)pyridine-2,4-diol] | 7.00 to 8.00
11 | CCCCc1nc(O)c(S(=O)(=O)c2ccc(-n3cc(C)ccc3=O)cc2)c(O)c1N(C)c1ccc(C)cc1 [Example 098, 1-(4-((6-butyl-2,4-dihydroxy-5-(methyl(p-tolyl)amino)pyridin-3-yl)sulfonyl)phenyl)-5-methylpyridin-2(1H)-one] | 8.00 to 11.00
12 | CCCCc1nc(O)c(S(=O)(=O)c2ccc(-n3cc(C)ccc3=O)cc2)c(O)c1N(C)c1cccc(C)c1 [Example 099, 1-(4-((6-butyl-2,4-dihydroxy-5-(methyl(m-tolyl)amino)pyridin-3-yl)sulfonyl)phenyl)-5-methylpyridin-2(1H)-one] | 7.00 to 8.00
13 | CCCCc1nc(O)c(S(=O)(=O)c2ccc(C3CC3)cc2)c(O)c1N(C)c1ccc(C)cc1 [Example 100, 6-butyl-3-((4-cyclopropylphenyl)sulfonyl)-5-(methyl(p-tolyl)amino)pyridine-2,4-diol] | 7.00 to 8.00
14 | CCCCc1nc(O)c(S(=O)(=O)c2ccc(-c3cccnc3C)cc2)c(O)c1N(C)c1cccc(F)c1 [Example 101, 6-butyl-5-((3-fluorophenyl)(methyl)amino)-3-((4-(2-methylpyridin-3-yl)phenyl)sulfonyl)pyridine-2,4-diol] | 8.00 to 11.00
15 | CCCCc1nc(O)c(S(=O)(=O)c2ccc(-c3cccnc3C)cc2)c(O)c1N(C)c1cccc(Cl)c1 [Example 102, 6-butyl-5-((3-chlorophenyl)(methyl)amino)-3-((4-(2-methylpyridin-3-yl)phenyl)sulfonyl)pyridine-2,4-diol] | 7.00 to 8.00
16 | CCCCc1nc(O)c(S(=O)(=O)c2ccc(-c3ccnc(F)c3C)cc2)c(O)c1N(C)c1ccc(Cl)cc1 [Example 103, 6-butyl-5-((4-chlorophenyl)(methyl)amino)-3-((4-(2-fluoro-3-methylpyridin-4-yl)phenyl)sulfonyl)pyridine-2,4-diol] | 8.00 to 11.00

Row | Structure (SMILES) | pEC50
17 | CCCCc1nc(O)c(S(=O)(=O)c2ccc(-c3ccncc3C)cc2)c(O)c1N(C)c1cccc(F)c1 [Example 104, 6-butyl-5-((3-fluorophenyl)(methyl)amino)-3-((4-(3-methylpyridin-4-yl)phenyl)sulfonyl)pyridine-2,4-diol] | 8.00 to 11.00
18 | CCCCc1nc(O)c(S(=O)(=O)c2ccc(-c3ccc(F)nc3C)cc2)c(O)c1N(C)c1cccc(Cl)c1 [Example 105, 6-butyl-5-((3-chlorophenyl)(methyl)amino)-3-((4-(6-fluoro-2-methylpyridin-3-yl)phenyl)sulfonyl)pyridine-2,4-diol] | 7.00 to 8.00
19 | CCCCc1nc(O)c(S(=O)(=O)c2ccc(-c3ccnc(F)c3C)cc2)c(O)c1N(C)c1cccc(F)c1 [Example 106, 6-butyl-3-((4-(2-fluoro-3-methylpyridin-4-yl)phenyl)sulfonyl)-5-((3-fluorophenyl)(methyl)amino)pyridine-2,4-diol] | 8.00 to 11.00
20 | CCCCc1nc(O)c(S(=O)(=O)c2ccc(-c3ccnc(F)c3C)cc2)c(O)c1N(C)c1cccc(Cl)c1 [Example 107, 6-butyl-5-((3-chlorophenyl)(methyl)amino)-3-((4-(2-fluoro-3-methylpyridin-4-yl)phenyl)sulfonyl)pyridine-2,4-diol] | 8.00 to 11.00
21 | CCCCc1nc(O)c(S(=O)(=O)c2ccc(-c3ccncc3C)cc2)c(O)c1N(C)c1ccc(Cl)cc1 [Example 108, 6-butyl-5-((4-chlorophenyl)(methyl)amino)-3-((4-(3-methylpyridin-4-yl)phenyl)sulfonyl)pyridine-2,4-diol] | 8.00 to 11.00
22 | CCCCc1nc(O)c(S(=O)(=O)c2ccc(-c3ccc(F)nc3C)cc2)c(O)c1N(C)c1cccc(F)c1 [Example 109, 6-butyl-3-((4-(6-fluoro-2-methylpyridin-3-yl)phenyl)sulfonyl)-5-((3-fluorophenyl)(methyl)amino)pyridine-2,4-diol] | 7.00 to 8.00
23 | CCCCc1nc(O)c(S(=O)(=O)c2ccc(-c3ccncc3C)cc2)c(O)c1N(C)c1cccc(Cl)c1 [Example 110, 6-butyl-5-((3-chlorophenyl)(methyl)amino)-3-((4-(3-methylpyridin-4-yl)phenyl)sulfonyl)pyridine-2,4-diol] | 8.00 to 11.00
24 | CCCCc1nc(O)c(S(=O)(=O)c2ccc(-c3cccnc3C)cc2)c(O)c1N(C)c1ccc(Cl)cc1 [Example 111, 6-butyl-5-((4-chlorophenyl)(methyl)amino)-3-((4-(2-methylpyridin-3-yl)phenyl)sulfonyl)pyridine-2,4-diol] | 8.00 to 11.00
25 | CCCCc1nc(O)c(S(=O)(=O)c2ccc(-c3ccncc3C)cc2)c(O)c1N(C)c1ccccc1F [Example 112, 6-butyl-5-((2-fluorophenyl)(methyl)amino)-3-((4-(3-methylpyridin-4-yl)phenyl)sulfonyl)pyridine-2,4-diol] | 8.00 to 11.00
26 | CCCCc1nc(O)c(S(=O)(=O)c2ccc(-c3ccncc3C)cc2)c(O)c1N(C)c1cccc(C#N)c1 [Example 113, 3-((2-butyl-4,6-dihydroxy-5-((4-(3-methylpyridin-4-yl)phenyl)sulfonyl)pyridin-3-yl)(methyl)amino)benzonitrile] | 8.00 to 11.00
27 | CCN(c1ccccc1)c1c(-c2cccc(C)c2)nc(O)c(S(=O)(=O)c2ccc(-c3ccc(F)nc3C)cc2)c1O [Example 114, 5-(ethyl(phenyl)amino)-3-((4-(6-fluoro-2-methylpyridin-3-yl)phenyl)sulfonyl)-6-(m-tolyl)pyridine-2,4-diol] | 8.00 to 11.00
28 | CCCCc1nc(O)c(S(=O)(=O)c2ccc(-c3ccc(F)nc3C)cc2)c(O)c1N1CCCOc2ccccc21 [Example 115, 6-butyl-5-(3,4-dihydrobenzo[b][1,4]oxazepin-5(2H)-yl)-3-((4-(6-fluoro-2-methylpyridin-3-yl)phenyl)sulfonyl)pyridine-2,4-diol] | 7.00 to 8.00
29 | CCCCc1nc(O)c(S(=O)(=O)c2ccc(-c3ccc(F)nc3C)cc2)c(O)c1N(C)c1cccc(C#N)c1 [Example 117, 3-((2-butyl-5-((4-(6-fluoro-2-methylpyridin-3-yl)phenyl)sulfonyl)-4,6-dihydroxypyridin-3-yl)(methyl)amino)benzonitrile] | 8.00 to 11.00
30 | CCCCc1nc(O)c(S(=O)(=O)c2ccc(-c3ccc(F)nc3C)cc2)c(O)c1N(C)c1ccccc1F [Example 118, 6-butyl-3-((4-(6-fluoro-2-methylpyridin-3-yl)phenyl)sulfonyl)-5-((2-fluorophenyl)(methyl)amino)pyridine-2,4-diol] | 8.00 to 11.00
31 | CCCCc1nc(O)c(S(=O)(=O)c2ccc(-c3cccnc3C)cc2)c(O)c1N(C)c1cccc(C#N)c1 [Example 119, 3-((2-butyl-4,6-dihydroxy-5-((4-(2-methylpyridin-3-yl)phenyl)sulfonyl)pyridin-3-yl)(methyl)amino)benzonitrile] | 8.00 to 11.00
